# Test results reported in ChEMBL document CHEMBL5550223, “Restoration of the Lost Human Beta Defensin-1 Protein in Cancer as a Strategy to Improve the Efficacy of Chemotherapy” (J Med Chem, 2024).
# The source made the active and inactive calls. The calls are words filed in the database; no cut-off is given here. Positions of bridges follow the written chain, without caps; N, C: chain ends. Residues, ends and D or L forms follow the SMILES beside them.
# What was measured:
# MDA-MB-231 [1] = assay: Activation of CD95 cell death pathway in Fas-resistant human MDA-MB-231 cells pretreated for 6 hrs followed by treated with anti-Fas antibody assessed as increase in CD95 expression measured after 24 hrs by FACS analysis; assay type: functional, cell-based
# PC-3 [2] = assay: Cytotoxicity against human PC-3 cells assessed as dead cells at 30 uM measured after 24 to 72 hrs by FACS based Calcein A/EtBr-dimer LIVE/DEAD cell staining kit; assay type: functional; details: time 24-72 hrs
# PC-3 [3] = assay: Cytotoxicity against human PC-3 cells assessed as dead cells at 60 uM measured after 24 to 72 hrs by FACS based Calcein A/EtBr-dimer LIVE/DEAD cell staining kit; assay type: functional; details: time 24-72 hrs
# PC-3 [4] = assay: Cytotoxicity against human PC-3 cells assessed as dead cells measured after 24 to 72 hrs by FACS based Calcein A/EtBr-dimer LIVE/DEAD cell staining kit; assay type: functional
# MDA-MB-231 [5] = assay: Cytotoxicity against human MDA-MB-231 cells assessed as cell death measured by MTT assay; assay type: functional, cell-based
# PC-3 [6] = assay: Cytotoxicity against human PC-3 cells assessed as cell death measured by MTT assay; assay type: functional, cell-based
# DU-145 [7] = assay: Cytotoxicity against human DU-145 cells assessed as cell death measured by MTT assay; assay type: functional, cell-based
# LNCaP [8] = assay: Cytotoxicity against human LNCaP cells assessed as cell death measured by MTT assay; assay type: functional, cell-based
# [9] = Cytotoxicity against human ABC-TC3995 cells assessed as cell death measured by MTT assay; assay type: functional, cell-based
# [10] = Cytotoxicity against human iPSC cells assessed as cell death measured by MTT assay; assay type: functional, cell-based
# MDA-MB-231 [11] = assay: Cytotoxicity against human MDA-MB-231 cells assessed as cell death in presence of doxorubicin measured by MTT assay; assay type: functional, cell-based
# PC-3 [12] = assay: Cytotoxicity against human PC-3 cells assessed as cell death in presence of doxorubicin measured by MTT assay; assay type: functional, cell-based
# DU-145 [13] = assay: Cytotoxicity against human DU-145 cells assessed as cell death in presence of doxorubicin measured by MTT assay; assay type: functional, cell-based
# LNCaP [14] = assay: Cytotoxicity against human LnCAP cells assessed as cell death in presence of doxorubicin measured by MTT assay; assay type: functional, cell-based
# [15] = Cytotoxicity against human ABC-TC3995 cells assessed as cell death in presence of doxorubicin measured by MTT assay; assay type: functional, cell-based
# [16] = Cytotoxicity against human iPSC cells assessed as cell death in presence of doxorubicin measured by MTT assay; assay type: functional, cell-based
# MDA-MB-231 [17] = assay: Cytotoxicity against human MDA-MB-231 cells assessed as cell death in presence of docetaxel measured by MTT assay; assay type: functional, cell-based
# PC-3 [18] = assay: Cytotoxicity against human PC-3 cells assessed as cell death in presence of docetaxel measured by MTT assay; assay type: functional, cell-based
# DU-145 [19] = assay: Cytotoxicity against human DU-145 cells assessed as cell death in presence of docetaxel measured by MTT assay; assay type: functional, cell-based
# LNCaP [20] = assay: Cytotoxicity against human LNCaP cells assessed as cell death in presence of docetaxel measured by MTT assay; assay type: functional, cell-based
# [21] = Cytotoxicity against human ABC-TC3995 cells assessed as cell death in presence of docetaxel measured by MTT assay; assay type: functional, cell-based
# [22] = Cytotoxicity against human iPSC cells assessed as cell death in presence of docetaxel measured by MTT assay; assay type: functional, cell-based
# MDA-MB-231 [23] = assay: Synergistic cytotoxicity against Fas-resistant human MDA-MB-231 cells assessed as cell death at 10 uM in presence of 1 to 3 ug/ml doxorubicin measured after 24 to 72 hrs by fluorescent microscopy; assay type: functional, cell-based; details: time 24-72 hrs
# MDA-MB-231 [24] = assay: Synergistic cytotoxicity against Fas-resistant human MDA-MB-231 cells assessed as cell death at 10 uM in presence of 3 ug/ml doxorubicin measured after 24 to 72 hrs by fluorescent microscopy; assay type: functional; details: time 24-72 hrs
# MDA-MB-231 [25] = assay: In vivo antitumor activity against human MDA-MB-231 cells expressing FLuc-EGFP fusion protein xenografted in NOD-SCID mouse assessed as tumor regression at 50 mg/kg, ip measured upto day 13 by optical imaging based assay relative to control; assay type: functional, organism-based; details: time 13.0 day
# MDA-MB-231 [26] = assay: In vivo antitumor activity against human MDA-MB-231 cells expressing FLuc-EGFP fusion protein xenografted in NOD-SCID mouse assessed as tumor regression at 100 mg/kg, ip measured upto day 13 by optical imaging based assay relative to control; assay type: functional, organism-based; details: time 13.0 day
# MDA-MB-231 [27] = assay: In vivo antitumor activity against human MDA-MB-231 cells expressing FLuc-EGFP fusion protein xenografted in NOD-SCID mouse assessed as tumor regression at 200 mg/kg, ip measured upto day 13 by optical imaging based assay relative to control; assay type: functional, organism-based; details: time 13.0 day
# MDA-MB-231 [28] = assay: In vivo antitumor activity against human MDA-MB-231 cells expressing FLuc-EGFP fusion protein xenografted in NOD-SCID mouse assessed as loss of cellularity of tumor at 200 mg/kg, ip measured upto day 13 by H and E staining based assay; assay type: functional, organism-based
# [29] = Toxicity in NOD-SCID mouse xenografted in human MDA-MB-231 cells assessed as heart histology at 200 mg/kg, ip measured upto day 13 by H and E staining based assay; assay type: organism-based; details: in vivo
# [30] = Toxicity in NOD-SCID mouse xenografted in human MDA-MB-231 cells assessed as liver histology at 200 mg/kg, ip measured upto day 13 by H and E staining based assay; assay type: organism-based; details: in vivo
# [31] = Toxicity in NOD-SCID mouse xenografted in human MDA-MB-231 cells assessed as kidney histology at 200 mg/kg, ip measured upto day 13 by H and E staining based assay; assay type: organism-based; details: in vivo, 312 h, time 13 day
structure (smiles),measurement,setting,value
CC[C@H](C)[C@H](NC(=O)[C@H](CCCCN)NC(=O)[C@@H](NC(=O)[C@H](Cc1ccccc1)NC(=O)[C@@H](NC(=O)[C@@H]1CCCN1C(=O)[C@H](CS)NC(=O)[C@H](C)NC(=O)[C@H](CO)NC(=O)[C@H](Cc1ccc(O)cc1)NC(=O)[C@H](CC(C)C)NC(=O)[C@H](CS)NC(=O)[C@H](CCC(N)=O)NC(=O)CNC(=O)CNC(=O)[C@H](CO)NC(=O)[C@H](CO)NC(=O)[C@@H](NC(=O)[C@H](CS)NC(=O)[C@H](CC(N)=O)NC(=O)[C@H](Cc1ccc(O)cc1)NC(=O)[C@H](Cc1c[nH]cn1)NC(=O)[C@@H](N)CC(=O)O)C(C)C)[C@@H](C)CC)[C@@H](C)O)C(=O)N[C@@H](CCC(N)=O)C(=O)NCC(=O)N[C@H](C(=O)N[C@@H](CS)C(=O)N[C@@H](Cc1ccc(O)cc1)C(=O)N[C@@H](CCCNC(=N)N)C(=O)NCC(=O)N[C@@H](CCCCN)C(=O)N[C@@H](C)C(=O)N[C@@H](CCCCN)C(=O)N[C@@H](CS)C(=O)N[C@@H](CS)C(=O)N[C@@H](CCCCN)C(=O)O)[C@@H](C)O (H-DHYNCVSSGGQCLYSACPIFTKIQGTCYRGKAKCCK-OH),Activity,MDA-MB-231 [1],inactive
"CC[C@H](C)[C@@H]1NC(=O)[C@H](CCCCN)NC(=O)[C@H]([C@@H](C)O)NC(=O)[C@H](Cc2ccccc2)NC(=O)[C@H]([C@@H](C)CC)NC(=O)[C@@H]2CCCN2C(=O)[C@@H]2CSSC[C@@H]3NC(=O)[C@H](CCCCN)NC(=O)[C@H](C)NC(=O)[C@H](CCCCN)NC(=O)CNC(=O)[C@H](CCCNC(=N)N)NC(=O)[C@H](Cc4ccc(O)cc4)NC(=O)[C@H](CSSC[C@H](NC(=O)[C@H](CCC(N)=O)NC(=O)CNC(=O)CNC(=O)[C@H](CO)NC(=O)[C@H](CO)NC(=O)[C@H](C(C)C)NC(=O)[C@@H](NC(=O)[C@H](CC(N)=O)NC(=O)[C@H](Cc4ccc(O)cc4)NC(=O)[C@H](Cc4c[nH]cn4)NC(=O)[C@@H](N)CC(=O)O)CSSC[C@@H](C(=O)N[C@@H](CCCCN)C(=O)O)NC3=O)C(=O)N[C@@H](CC(C)C)C(=O)N[C@@H](Cc3ccc(O)cc3)C(=O)N[C@@H](CO)C(=O)N[C@@H](C)C(=O)N2)NC(=O)[C@H]([C@@H](C)O)NC(=O)CNC(=O)[C@H](CCC(N)=O)NC1=O (H-DHYNCVSSGGQCLYSACPIFTKIQGTCYRGKAKCCK-OH; disulfide 5-35, 12-27, 17-34)",Activity,PC-3 [2],63.4%
same,Activity,PC-3 [3],97.2%
same,IC50,PC-3 [4],20 µM
same,IC50,MDA-MB-231 [5],24.5 µM
same,IC50,PC-3 [6],26.5 µM
same,IC50,DU-145 [7],5.8 µM
same,IC50,LNCaP [8],12.4 µM
same,IC50,[9],> 250 µM
same,IC50,[10],> 250 µM
same,IC50,MDA-MB-231 [11],3.8 µM
same,IC50,PC-3 [12],0.95 µM
same,IC50,DU-145 [13],0.25 µM
same,IC50,LNCaP [14],0.11 µM
same,IC50,[15],89.5 µM
same,IC50,[16],94.5 µM
same,IC50,MDA-MB-231 [17],6.5 µM
same,IC50,PC-3 [18],1.2 µM
same,IC50,DU-145 [19],0.45 µM
same,IC50,LNCaP [20],0.15 µM
same,IC50,[21],78.6 µM
same,IC50,[22],84.5 µM
same,Activity,MDA-MB-231 [23],Active
same,Activity,MDA-MB-231 [24],>90%
same,Activity,MDA-MB-231 [1],Dose-Dependent Effect
same,Activity,MDA-MB-231 [25],inactive
same,Activity,MDA-MB-231 [26],Active
same,Activity,MDA-MB-231 [27],Active
same,Activity,MDA-MB-231 [28],Active
same,Activity,[29],Non-Toxic
same,Activity,[30],Non-Toxic
same,Activity,[31],Non-Toxic
CC(=O)O[C@@]12CO[C@@H]1C[C@H](O)[C@@]1(C)C(=O)[C@H](O)C3=C(C)[C@@H](OC(=O)[C@H](O)[C@@H](NC(=O)OC(C)(C)C)c4ccccc4)C[C@@](O)([C@@H](OC(=O)c4ccccc4)[C@H]21)C3(C)C [DOCETAXEL ANHYDROUS],IC50,MDA-MB-231 [5],38.9 µM
same,IC50,PC-3 [6],12.5 µM
same,IC50,DU-145 [7],5.4 µM
same,IC50,LNCaP [8],12.3 µM
same,IC50,[9],16.5 µM
same,IC50,[10],18.6 µM
COc1cccc2c1C(=O)c1c(O)c3c(c(O)c1C2=O)C[C@@](O)(C(=O)CO)C[C@@H]3O[C@H]1C[C@H](N)[C@H](O)[C@H](C)O1 [DOXORUBICIN],IC50,MDA-MB-231 [5],46.5 µM
same,IC50,PC-3 [6],17.5 µM
same,IC50,DU-145 [7],12.4 µM
same,IC50,LNCaP [8],1.07 µM
same,IC50,[9],12.5 µM
same,IC50,[10],6.8 µM
